Assays:
SIRT1 [1] = molecular target: T1, SIRT1 (Homo sapiens, UniProt Q96EB6); test: Trp mass spectrometry assay of SIRT1 deacetylase activation; assay type: biochemical; conditions: Trp peptide substrate; for TRP EC1.5 (μM): concentration that results in 150% activation of SIRT1; for TRP % Fold Act: percent maximum fold activation relative to control (100%)
T1 sequence (Q96EB6 1-747): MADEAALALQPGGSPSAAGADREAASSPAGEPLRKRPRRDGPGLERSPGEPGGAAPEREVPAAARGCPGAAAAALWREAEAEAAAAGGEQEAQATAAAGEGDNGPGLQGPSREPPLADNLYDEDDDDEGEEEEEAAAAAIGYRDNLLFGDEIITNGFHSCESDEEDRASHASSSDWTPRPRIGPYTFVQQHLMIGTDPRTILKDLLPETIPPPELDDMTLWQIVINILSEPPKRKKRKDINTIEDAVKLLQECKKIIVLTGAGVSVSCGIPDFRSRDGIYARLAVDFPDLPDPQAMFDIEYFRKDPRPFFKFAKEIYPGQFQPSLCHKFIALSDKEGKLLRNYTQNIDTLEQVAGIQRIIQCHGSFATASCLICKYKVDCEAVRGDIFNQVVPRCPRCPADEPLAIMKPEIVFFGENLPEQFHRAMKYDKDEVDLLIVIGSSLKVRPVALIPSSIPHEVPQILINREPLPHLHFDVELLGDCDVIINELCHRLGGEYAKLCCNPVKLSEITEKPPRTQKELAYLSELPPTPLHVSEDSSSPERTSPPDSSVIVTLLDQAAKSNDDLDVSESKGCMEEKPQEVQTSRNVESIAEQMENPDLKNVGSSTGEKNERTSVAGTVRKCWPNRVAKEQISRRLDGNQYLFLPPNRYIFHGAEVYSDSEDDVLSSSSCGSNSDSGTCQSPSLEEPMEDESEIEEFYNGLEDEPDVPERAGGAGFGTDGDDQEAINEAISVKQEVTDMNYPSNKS
Excerpt: (§1) Mass spectrometry based assays were used to identify modulators of SIRT1 activity. The TAMRA based assay utilized a peptide having 20 amino acid residues as follows: Ac-EE-K(biotin)-GQSTSSHSK(Ac)NleSTEG-K(5TMR)-EE-NH2 (SEQ ID NO: 1), wherein K(Ac) is an acetylated lysine residue and Nle is a norleucine. The peptide was labeled with the fluorophore 5TMR (excitation 540 nm/emission 580 nm) at the C-terminus. The sequence of the peptide substrate was based on p53 with several modifications. In addition, the methionine residue naturally present in the sequence was replaced with the norleucine because the methionine may be susceptible to oxidation during synthesis and purification. The Trp based assay utilized a peptide having an amino acid residues as follows: Ac-R-H-K-K(Ac)-W-NH2 (SEQ ID NO: 2).
The Trp mass spectrometry assay was conducted as follows. 0.5 μM peptide substrate and 120 μM βNAD^+ were incubated with 10 nM SIRT1 for 25 minutes at 25° C. in a reaction buffer (50 mM HEPES pH 7.5, […], 1 mM DTT, 0.05% BSA). The SIRT1 protein was obtained by cloning the SirT1 gene into a T7-promoter containing vector, which was then expressed in BL21(DE3) bacterial cells and purified as described in further detail below. Test compound was added at varying concentrations to this reaction mixture and the resulting reactions were monitored. After the 25 minute incubation with SIRT1, 10 μL of 10% formic acid was added to stop the reaction. The resulting reactions were sealed and frozen for later mass spec analysis. The relative SIRT1 activity was then determined by measuring the amount of O-acetyl-ADP-ribose (OAADPR) formed (or, alternatively, the amount of deacetylated Trp peptide generated) by the NAD-dependent sirtuin deacetylation reaction in the presence of varying concentrations of the test compound versus control reactions lacking the test compound. The degree to which the test agent activated deacetylation by SIRT1 was expressed as EC1.5 (i.e., the concentration of compound required to increase SIRT1 activity by 50% over the control lacking test compound), and Percent Maximum Activation (i.e., the maximum activity relative to control (100%) obtained for the test compound).
(§2) A control for inhibition of sirtuin activity was conducted by adding 1 μL of 500 mM nicotinamide as a negative control at the start of the reaction (e.g., permits determination of maximum sirtuin inhibition). A control for activation of sirtuin activity was conducted using 10 nM of sirtuin protein, with 1 μL of DMSO in place of compound, to determine the amount of deacetylation of the substrate at a given time point within the linear range of the assay. This time point was the same as that used for test compounds and, within the linear range, the endpoint represents a change in velocity. For the above assay, SIRT1 protein was expressed and purified as follows. The SirT1 gene was cloned into a T7-promoter containing vector and transformed into BL21(DE3). The protein was expressed by induction with 1 mM IPTG as an N-terminal His-tag fusion protein at 18° C. overnight and harvested at 30,000×g. Cells were lysed with lysozyme in lysis buffer (50 mM Tris-HCl, 2 mM Tris[2-carboxyethyl] phosphine (TCEP), 10 μM ZnCl2, 200 mM NaCl) and further treated with sonication for 10 min for complete lysis. The protein was purified over a Ni-NTA column (Amersham) and fractions containing pure protein were pooled, concentrated and run over a sizing column (Sephadex S200 26/60 global). The peak containing soluble protein was collected and run on an Ion-exchange column (MonoQ). Gradient elution (200 mM-500 mM NaCl) yielded pure protein. This protein was concentrated and dialyzed against dialysis buffer (20 mM Tris-HCl, 2 mM TCEP) overnight. The protein was aliquoted and frozen at −80° C. until further use.
Sirtuin-modulating compounds of Formula (I) that activated SIRT1 were identified using the assay described above and are shown below in Table 1. […]

SIRT1 [2] = molecular target: T1, SIRT1; test: TAMRA based mass spectrometry assay of SIRT1 deacetylase activation; assay type: biochemical; conditions: TAMRA peptide substrate; for TAMRA EC1.5 (μM): concentration that results in 150% activation of SIRT1; for TAMRA % Fold Act: percent maximum fold activation relative to control (100%)
Excerpt: as §1
The TAMRA based mass spectrometry assay was conducted as follows: 0.5 μM peptide substrate and 120 μM βNAD^+ was incubated with 10 nM SIRT1 for 25 minutes at 25° C. in a reaction buffer (50 mM Tris-acetate pH 8, 137 mM NaCl, 2.7 mM KCl, 1 mM MgCl2, 5 mM DTT, 0.05% BSA). The SIRT1 protein was obtained by cloning the SirT1 gene into a T7-promoter containing vector, which was then transformed and expressed in BL21(DE3) bacterial cells. Test compound was added at varying concentrations to this reaction mixture and the resulting reactions were monitored. After the 25 minute incubation with SIRT1, 10 μL of 10% formic acid was added to stop the reaction. The resulting reactions were sealed and frozen for later mass spec analysis. Determination of the amount of deacetylated substrate peptide formed (or, alternatively, the amount of O-acetyl-ADP-ribose (OAADPR) generated) by the sirtuin-mediated NAD-dependent deacetylation reaction allowed for the precise measurement of relative SIRT1 activity in the presence of varying concentrations of the test compound versus control reactions lacking the test compound.
as §2
Sirtuin-modulating compounds of Formula (I) that activated SIRT1 were identified using the assay described above and are shown below in Table 1. The EC1.5 values represent the concentration of test compounds that result in 150% activation of SIRT1. The EC1.5 values for the activating compounds of Formula (I) are represented by A (EC1.5<1 μM), B (EC1.5 1−25 μM), C (EC1.5>25 μM). […]

Row | TRP EC1.5 (μM) (SIRT1 [1]) | TRP % Fold Act (SIRT1 [1]) | TAMRA EC1.5 (μM) (SIRT1 [2]) | TAMRA % Fold Act (SIRT1 [2]) | Structure (SMILES)
1 | C (EC1.5>25 μM) | B (Fold Activation<350%) | C (EC1.5>25 μM) | B (Fold Activation<350%) | O=C(Nc1nccs1)c1ccnn2cc(-c3ccccc3F)nc12 [Compound 1]
2 |  |  | C (EC1.5>25 μM) | B (Fold Activation<350%) | O=C(Nc1nccs1)c1ccnn2cc(-c3ccccc3Cl)nc12 [Compound 3]
3 | C (EC1.5>25 μM) | B (Fold Activation<350%) | C (EC1.5>25 μM) | B (Fold Activation<350%) | Cc1cnc(NC(=O)c2ccnn3cc(-c4ccccc4F)nc23)s1 [Compound 4]
4 |  |  | C (EC1.5>25 μM) | B (Fold Activation<350%) | O=C(Nc1ccnc(N2CCOCC2)c1)c1ccnn2cc(-c3ccccc3F)nc12 [Compound 7]
5 |  |  | B (EC1.5 1−25 μM) | B (Fold Activation<350%) | O=C(Nc1ccnc(N2CCOCC2)c1)c1ccnn2cc(-c3ccccc3Cl)nc12 [Compound 9]
6 |  |  | C (EC1.5>25 μM) | B (Fold Activation<350%) | O=C(Nc1cccc(N2CCOCC2)n1)c1ccnn2cc(-c3cccc(F)c3)nc12 [Compound 11]
7 |  |  | A (EC1.5<1 μM) | A (Fold activation≧350%) | O=C(Nc1ccnc(N2CCOCC2)c1)c1ccnn2cc(-c3ccccc3C(F)(F)F)nc12 [Compound 15]
8 |  |  | C (EC1.5>25 μM) | B (Fold Activation<350%) | O=C(Nc1ccnc(N2CCOCC2)c1)c1ccnn2cc(-c3cccc(C(F)(F)F)c3)nc12 [Compound 19]
9 |  |  | A (EC1.5<1 μM) | B (Fold Activation<350%) | O=C(Nc1cccc(N2CCOCC2)n1)c1ccnn2cc(-c3cccc(C(F)(F)F)c3)nc12 [Compound 20]
10 |  |  | C (EC1.5>25 μM) | B (Fold Activation<350%) | O=C(Nc1cccc(N2CCOCC2)n1)c1ccnn2cc(-c3cccc(Cl)c3)nc12 [Compound 24]
11 |  |  | C (EC1.5>25 μM) | B (Fold Activation<350%) | Cc1cnc(NC(=O)c2cc(N3CCOCC3)nn3cc(-c4cccc(Cl)c4)nc23)s1 [Compound 31]
12 | B (EC1.5 1−25 μM) | B (Fold Activation<350%) |  |  | O=C(Nc1nccs1)c1cc(N2CCOCC2)nn2cc(-c3ccccc3Cl)nc12 [Compound 34]
13 | C (EC1.5>25 μM) | B (Fold Activation<350%) |  |  | Cc1cnc(NC(=O)c2cc(N3CCOCC3)nn3cc(-c4ccccc4Cl)nc23)s1 [Compound 35]
14 | C (EC1.5>25 μM) | B (Fold Activation<350%) |  |  | Cc1cnc(NC(=O)c2cc(N3CCOCC3)nn3cc(-c4ccccc4F)nc23)s1 [Compound 38]
15 |  |  | C (EC1.5>25 μM) | B (Fold Activation<350%) | O=C(Nc1cccnc1)c1cc(N2CCOCC2)nn2cc(-c3cccc(C(F)(F)F)c3)nc12 [Compound 50]
16 |  |  | C (EC1.5>25 μM) | B (Fold Activation<350%) | O=C(Nc1ccncc1)c1cc(N2CCOCC2)nn2cc(-c3cccc(C(F)(F)F)c3)nc12 [Compound 51]
17 |  |  | C (EC1.5>25 μM) | B (Fold Activation<350%) | O=C(Nc1cccnc1)c1cc(N2CCOCC2)nn2cc(-c3ccccc3Cl)nc12 [Compound 52]
18 |  |  | C (EC1.5>25 μM) | B (Fold Activation<350%) | O=C(Nc1ccncc1)c1cc(N2CCOCC2)nn2cc(-c3ccccc3Cl)nc12 [Compound 53]
19 | C (EC1.5>25 μM) | B (Fold Activation<350%) |  |  | Cc1nc(C(=O)Nc2ccnc3cc(-c4cccc(C(F)(F)F)c4)nn23)cs1 [Compound 67]
20 | C (EC1.5>25 μM) | B (Fold Activation<350%) |  |  | Cc1nc(C(=O)Nc2ccnc3cc(-c4cccc(C(F)(F)F)c4)nn23)c(C)s1 [Compound 68]
21 | C (EC1.5>25 μM) | B (Fold Activation<350%) |  |  | Cc1cnc(C(=O)Nc2ccnc3cc(-c4cccc(C(F)(F)F)c4)nn23)s1 [Compound 69]
22 | C (EC1.5>25 μM) | B (Fold Activation<350%) |  |  | O=C(Nc1ccnc2cc(-c3cccc(C(F)(F)F)c3)nn12)c1cnccn1 [Compound 72]
23 | C (EC1.5>25 μM) | B (Fold Activation<350%) |  |  | O=C(Nc1ccccn1)c1ccnc2cc(-c3cccc(C(F)(F)F)c3)nn12 [Compound 84]
